PubChem BioAssay (NCI)
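Compound exposure: 48 hours, 5 concentrations, 96-well plates. GI50: concentration for 50% inhibition of growth. The concentration for full growth arrest is given as TGI.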

What was measured:
Test in all cases: DTP human tumour cell line panel, 48 h
786-0 renal = tested on: 786-0 renal
A498 renal = tested on: A498 renal
A549 NSCLC = tested on: A549 NSCLC
ACHN renal = tested on: ACHN renal
BT-549 breast = tested on: BT-549 breast
CAKI-1 renal = tested on: CAKI-1 renal
CCRF-CEM leukemia = tested on: CCRF-CEM leukemia
COLO 205 colon = tested on: COLO 205 colon
DU-145 prostate = tested on: DU-145 prostate
EKVX NSCLC = tested on: EKVX NSCLC
HCC-2998 colon = tested on: HCC-2998 colon
HCT-116 colon = tested on: HCT-116 colon
HCT-15 colon = tested on: HCT-15 colon
HOP-62 NSCLC = tested on: HOP-62 NSCLC
HOP-92 NSCLC = tested on: HOP-92 NSCLC
HS 578T breast = tested on: HS 578T breast
HT29 colon = tested on: HT29 colon
IGROV1 ovarian = tested on: IGROV1 ovarian
K-562 leukemia = tested on: K-562 leukemia
KM12 colon = tested on: KM12 colon
LOX IMVI melanoma = tested on: LOX IMVI melanoma
M14 melanoma = tested on: M14 melanoma
MALME-3M melanoma = tested on: MALME-3M melanoma
MCF7 breast = tested on: MCF7 breast
MDA-MB-231 breast = tested on: MDA-MB-231 breast
MDA-MB-435 = tested on: MDA-MB-435
MOLT-4 leukemia = tested on: MOLT-4 leukemia
NCI-H226 lung = tested on: NCI-H226 lung
NCI-H23 lung = tested on: NCI-H23 lung
NCI-H460 lung = tested on: NCI-H460 lung
NCI-H522 lung = tested on: NCI-H522 lung
OVCAR-3 ovarian = tested on: OVCAR-3 ovarian
OVCAR-4 ovarian = tested on: OVCAR-4 ovarian
OVCAR-5 ovarian = tested on: OVCAR-5 ovarian
OVCAR-8 ovarian = tested on: OVCAR-8 ovarian
PC-3 prostate = tested on: PC-3 prostate
RPMI-8226 leukemia = tested on: RPMI-8226 leukemia
RXF 393 renal = tested on: RXF 393 renal
SF-268 CNS = tested on: SF-268 CNS
SF-295 CNS = tested on: SF-295 CNS
SF-539 CNS = tested on: SF-539 CNS
SK-MEL-2 melanoma = tested on: SK-MEL-2 melanoma
SK-MEL-28 melanoma = tested on: SK-MEL-28 melanoma
SK-MEL-5 melanoma = tested on: SK-MEL-5 melanoma
SK-OV-3 ovarian = tested on: SK-OV-3 ovarian
SN12C renal = tested on: SN12C renal
SNB-19 CNS = tested on: SNB-19 CNS
SNB-75 CNS = tested on: SNB-75 CNS
SW-620 colon = tested on: SW-620 colon
T-47D breast = tested on: T-47D breast
TK-10 renal = tested on: TK-10 renal
U251 CNS = tested on: U251 CNS
UACC-257 melanoma = tested on: UACC-257 melanoma
UACC-62 melanoma = tested on: UACC-62 melanoma
UO-31 renal = tested on: UO-31 renal

Structure (SMILES): O=C(NN1C(=O)CSC12CCC(c1ccccc1)CC2)c1[nH]c2ccc(F)cc2c1-c1ccccc1 (stereo not given)
- GI50 (786-0 renal): 16.4 µM
- TGI (786-0 renal): 33.8 µM
- GI50 (A498 renal): 18.5 µM
- TGI (A498 renal): 34.9 µM
- GI50 (A549 NSCLC): 15.7 µM
- TGI (A549 NSCLC): 30.8 µM
- GI50 (ACHN renal): 17.2 µM
- TGI (ACHN renal): 31.8 µM
- GI50 (BT-549 breast): 19.9 µM
- TGI (BT-549 breast): 34.8 µM
- GI50 (CAKI-1 renal): 17.5 µM
- TGI (CAKI-1 renal): 36.6 µM
- GI50 (CCRF-CEM leukemia): 19.4 µM
- TGI (CCRF-CEM leukemia): 41.1 µM
- GI50 (COLO 205 colon): 21.2 µM
- TGI (COLO 205 colon): 68.3 µM
- GI50 (DU-145 prostate): 16.5 µM
- TGI (DU-145 prostate): 33.6 µM
- GI50 (EKVX NSCLC): 26.7 µM
- TGI (EKVX NSCLC): 62 µM
- GI50 (HCC-2998 colon): 14.9 µM
- TGI (HCC-2998 colon): 28.3 µM
- GI50 (HCT-116 colon): 14 µM
- TGI (HCT-116 colon): 27.1 µM
- GI50 (HCT-15 colon): 16.6 µM
- TGI (HCT-15 colon): 32.7 µM
- GI50 (HOP-62 NSCLC): 18.3 µM
- TGI (HOP-62 NSCLC): 34.7 µM
- GI50 (HOP-92 NSCLC): 17.2 µM
- TGI (HOP-92 NSCLC): 34.5 µM
- GI50 (HS 578T breast): 21.4 µM
- TGI (HS 578T breast): 52.3 µM
- GI50 (HT29 colon): 14.8 µM
- TGI (HT29 colon): 30.5 µM
- GI50 (IGROV1 ovarian): 13 µM
- TGI (IGROV1 ovarian): 25.7 µM
- GI50 (K-562 leukemia): 23.7 µM
- TGI (K-562 leukemia): 62.9 µM
- GI50 (KM12 colon): 16 µM
- TGI (KM12 colon): 30.7 µM
- GI50 (LOX IMVI melanoma): 17.1 µM
- TGI (LOX IMVI melanoma): 30.8 µM
- GI50 (M14 melanoma): 20.1 µM
- TGI (M14 melanoma): 35.6 µM
- GI50 (MALME-3M melanoma): 16.2 µM
- TGI (MALME-3M melanoma): 30.9 µM
- GI50 (MCF7 breast): 25.3 µM
- TGI (MCF7 breast): 71.8 µM
- GI50 (MDA-MB-231 breast): 16.9 µM
- TGI (MDA-MB-231 breast): 31.6 µM
- GI50 (MDA-MB-435): 18.8 µM
- TGI (MDA-MB-435): 36.7 µM
- GI50 (MOLT-4 leukemia): 12.2 µM
- TGI (MOLT-4 leukemia): 33.7 µM
- GI50 (NCI-H226 lung): 19.2 µM
- TGI (NCI-H226 lung): 38.6 µM
- GI50 (NCI-H23 lung): 17.4 µM
- TGI (NCI-H23 lung): 32 µM
- GI50 (NCI-H460 lung): 19.6 µM
- TGI (NCI-H460 lung): 47.7 µM
- GI50 (NCI-H522 lung): 14.3 µM
- TGI (NCI-H522 lung): 28.2 µM
- GI50 (OVCAR-3 ovarian): 17.1 µM
- TGI (OVCAR-3 ovarian): 31.5 µM
- GI50 (OVCAR-4 ovarian): 15.8 µM
- TGI (OVCAR-4 ovarian): 32.5 µM
- GI50 (OVCAR-5 ovarian): 18.5 µM
- TGI (OVCAR-5 ovarian): 34.7 µM
- GI50 (OVCAR-8 ovarian): 17.8 µM
- TGI (OVCAR-8 ovarian): 36.5 µM
- GI50 (PC-3 prostate): 18.1 µM
- TGI (PC-3 prostate): 39.6 µM
- GI50 (RPMI-8226 leukemia): 13.8 µM
- TGI (RPMI-8226 leukemia): 31.8 µM
- GI50 (RXF 393 renal): 15.3 µM
- TGI (RXF 393 renal): 29.5 µM
- GI50 (SF-268 CNS): 20 µM
- TGI (SF-268 CNS): 48.4 µM
- GI50 (SF-295 CNS): 22 µM
- TGI (SF-295 CNS): 41.6 µM
- GI50 (SF-539 CNS): 20.9 µM
- TGI (SF-539 CNS): 38.3 µM
- GI50 (SK-MEL-2 melanoma): 17.6 µM
- TGI (SK-MEL-2 melanoma): 33.2 µM
- GI50 (SK-MEL-28 melanoma): 18.1 µM
- TGI (SK-MEL-28 melanoma): 34.3 µM
- GI50 (SK-MEL-5 melanoma): 17.5 µM
- TGI (SK-MEL-5 melanoma): 32.3 µM
- GI50 (SK-OV-3 ovarian): 37.7 µM
- TGI (SK-OV-3 ovarian): > 100 µM
- GI50 (SN12C renal): 17.6 µM
- TGI (SN12C renal): 31.8 µM
- GI50 (SNB-19 CNS): 29.8 µM
- TGI (SNB-19 CNS): > 100 µM
- GI50 (SNB-75 CNS): 18 µM
- TGI (SNB-75 CNS): 36.3 µM
- GI50 (SW-620 colon): 17.4 µM
- TGI (SW-620 colon): 36.8 µM
- GI50 (T-47D breast): 33.5 µM
- TGI (T-47D breast): > 100 µM
- GI50 (TK-10 renal): 17.3 µM
- TGI (TK-10 renal): 31.7 µM
- GI50 (U251 CNS): 15.6 µM
- TGI (U251 CNS): 29.9 µM
- GI50 (UACC-257 melanoma): 19.3 µM
- TGI (UACC-257 melanoma): 35.6 µM
- GI50 (UACC-62 melanoma): 10.8 µM
- TGI (UACC-62 melanoma): 23.8 µM
- GI50 (UO-31 renal): 17 µM
- TGI (UO-31 renal): 31 µM
